# Data reported in patent publication US11780893B2, “Kv1.3 blockers” (Zealand Pharma A/S, priority 2019, dated 2023).
# pIC50: −log10 of the molar value. Read-outs that look alike come from different tables or passages of the source. Bridge positions count the residues as written; N and C are the ends. Square brackets hold non-standard residues; d marks the D form. Peptide text beside a SMILES is read from it. Nle = CCCC[C@H](N)C(=O)O
# Columns and labels:
# [1] = biological target: T1, human Kv1.3 voltage-gated K+ channel (Homo sapiens, UniProt P22001); experiment: cell-based; conditions: inhibition of thallium flux, CHO-DUKX cells with human Kv1.3; read-out: IC50
# T1 construct: host or cells: CHO-DUKX
# T1 sequence (P22001 whole entry): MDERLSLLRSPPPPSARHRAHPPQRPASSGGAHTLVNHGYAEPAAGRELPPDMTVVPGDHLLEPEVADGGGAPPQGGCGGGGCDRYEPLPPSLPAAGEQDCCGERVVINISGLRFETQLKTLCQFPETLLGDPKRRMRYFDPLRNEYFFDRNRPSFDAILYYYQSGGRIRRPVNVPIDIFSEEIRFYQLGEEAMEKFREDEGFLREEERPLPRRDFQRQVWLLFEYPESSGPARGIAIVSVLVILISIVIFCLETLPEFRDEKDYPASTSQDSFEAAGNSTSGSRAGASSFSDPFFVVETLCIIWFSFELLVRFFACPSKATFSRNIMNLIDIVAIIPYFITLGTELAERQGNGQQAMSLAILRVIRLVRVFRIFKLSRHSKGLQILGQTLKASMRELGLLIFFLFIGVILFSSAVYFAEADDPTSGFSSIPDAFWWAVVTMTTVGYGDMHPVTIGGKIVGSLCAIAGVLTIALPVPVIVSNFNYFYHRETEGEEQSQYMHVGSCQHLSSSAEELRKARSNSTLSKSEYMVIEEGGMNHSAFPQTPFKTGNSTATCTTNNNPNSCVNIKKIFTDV
# Rat whole blood = Rat whole blood (Rattus norvegicus, UniProt P15384)
# Chain of Rat whole blood (P15384 whole entry): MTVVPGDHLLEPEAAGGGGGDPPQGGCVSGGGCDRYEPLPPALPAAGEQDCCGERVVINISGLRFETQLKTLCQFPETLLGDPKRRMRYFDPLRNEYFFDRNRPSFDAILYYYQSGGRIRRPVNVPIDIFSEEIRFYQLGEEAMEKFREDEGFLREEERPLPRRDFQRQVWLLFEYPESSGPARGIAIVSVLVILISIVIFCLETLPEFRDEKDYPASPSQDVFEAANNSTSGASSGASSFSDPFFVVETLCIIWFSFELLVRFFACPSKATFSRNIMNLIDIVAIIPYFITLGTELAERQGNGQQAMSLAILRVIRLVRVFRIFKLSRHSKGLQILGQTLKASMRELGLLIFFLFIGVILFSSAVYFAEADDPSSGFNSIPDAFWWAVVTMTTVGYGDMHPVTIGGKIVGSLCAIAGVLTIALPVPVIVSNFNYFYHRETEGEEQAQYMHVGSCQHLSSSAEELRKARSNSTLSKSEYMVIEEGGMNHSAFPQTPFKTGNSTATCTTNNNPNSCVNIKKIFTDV
# [2] = inhibition of IL-17A release, thapsigargin, 24 Hr, at least 2 replicates
Compound,pIC50 [1],pIC50 (Rat whole blood),pIC50 (Rat whole blood; [2])
"CC[C@H](C)[C@@H]1NC(=O)[C@H](C)NC(=O)[C@H](CCCCN)NC(=O)[C@H](CC(C)C)NC(=O)[C@@H]2CSSC[C@@H](C(=O)N[C@@H](Cc3ccc(O)cc3)C(=O)N3CCC[C@H]3C(=O)N[C@@H](CCCNC(=N)N)C(N)=O)NC(=O)[C@H](CCCCN)NC(=O)[C@@H]3CSSC[C@H](NC(=O)[C@H](CCC(=O)O)NC(=O)[C@H](C(C)C)NC(=O)[C@H](CO)NC(=O)[C@H](C)NC(=O)[C@H](CO)NC(=O)[C@@H](NC(=O)[C@H](CCCNC(=N)N)NC(=O)[C@H](CCSC)NC(=O)[C@H](CC(=O)O)NC(=O)[C@H](CCSC)NC(=O)[C@@H](N)CC(N)=O)CSSC[C@H](NC(=O)[C@H](CCCCN)NC(=O)CNC(=O)[C@H](Cc4ccccc4)NC(=O)[C@H]([C@@H](C)CC)NC(=O)[C@H](CO)NC(=O)[C@H](Cc4c[nH]cn4)NC1=O)C(=O)N[C@@H](CCSC)C(=O)N[C@@H](CC(N)=O)C(=O)N[C@@H](CCCCN)C(=O)N[C@@H](CCCCN)C(=O)N3)C(=O)N[C@@H](CCCCN)C(=O)N[C@@H](CCC(N)=O)C(=O)N[C@@H](CCCCN)C(=O)N2 [Compound 33] (H-NMDMRCSASVECKQKCLKAIHSIFGKCMNKKCKCYPR-NH2; disulfide 6-27, 12-32, 16-34)",9.85,≥ 9.00,9.15
"CC[C@H](C)[C@@H]1NC(=O)[C@H](C)NC(=O)[C@H](CCCCN)NC(=O)[C@H](CC(C)C)NC(=O)[C@@H]2CSSC[C@@H](C(=O)N[C@@H](Cc3ccc(O)cc3)C(=O)N3CCC[C@H]3C(=O)N[C@@H](CCCNC(=N)N)C(N)=O)NC(=O)[C@H](C(C)C)NC(=O)[C@@H]3CSSC[C@H](NC(=O)[C@H](CCC(=O)O)NC(=O)[C@H](C(C)C)NC(=O)[C@H](CO)NC(=O)[C@H](C)NC(=O)[C@H](CO)NC(=O)[C@@H](NC(=O)[C@H](CCCNC(=N)N)NC(=O)[C@H](CCSC)NC(=O)[C@H](CC(=O)O)NC(=O)[C@H](CCSC)NC(=O)[C@@H](N)CC(N)=O)CSSC[C@H](NC(=O)[C@H](CCCCN)NC(=O)CNC(=O)[C@H](Cc4ccccc4)NC(=O)[C@H]([C@@H](C)CC)NC(=O)[C@H](CO)NC(=O)CNC1=O)C(=O)N[C@@H](CCSC)C(=O)N[C@@H](CC(N)=O)C(=O)N[C@@H](CCCCN)C(=O)N[C@@H](CCCCN)C(=O)N3)C(=O)N[C@@H](CCCCN)C(=O)N[C@@H](CCC(N)=O)C(=O)N[C@@H](CCCCN)C(=O)N2 [Compound 38] (H-NMDMRCSASVECKQKCLKAIGSIFGKCMNKKCVCYPR-NH2; disulfide 6-27, 12-32, 16-34)",9.34,–,8.55
"CCCC[C@@H]1NC(=O)[C@@H]2CSSC[C@H](NC(=O)[C@H](CCCNC(=N)N)NC(=O)[C@H](CCCC)NC(=O)[C@H](CC(=O)O)NC(=O)[C@H](CCCC)NC(=O)[C@@H](N)CC(N)=O)C(=O)N[C@@H](CO)C(=O)N[C@@H](C)C(=O)N[C@@H](CO)C(=O)N[C@@H](C(C)C)C(=O)N[C@@H](CCC(=O)O)C(=O)N[C@H]3CSSC[C@H](NC(=O)[C@H](CCCCN)NC(=O)[C@H](CCCCN)NC(=O)[C@H](CC(N)=O)NC1=O)C(=O)N[C@@H](CCCCN)C(=O)N[C@H](C(=O)N[C@@H](Cc1ccc(O)cc1)C(=O)N1CCC[C@H]1C(=O)N[C@@H](CCCNC(=N)N)C(N)=O)CSSC[C@H](NC(=O)[C@H](CCCCN)NC(=O)[C@H](CCC(N)=O)NC(=O)[C@H](CCC(=O)O)NC3=O)C(=O)N[C@@H](CC(C)C)C(=O)N[C@@H](CCCCN)C(=O)N[C@@H](C)C(=O)N[C@@H]([C@@H](C)CC)C(=O)NCC(=O)N[C@@H](CO)C(=O)N[C@@H]([C@@H](C)CC)C(=O)N[C@@H](Cc1ccccc1)C(=O)NCC(=O)N[C@@H](CCCCN)C(=O)N2 [Compound 43] (H-N[Nle]D[Nle]RCSASVECEQKCLKAIGSIFGKC[Nle]NKKCKCYPR-NH2; disulfide 6-27, 12-32, 16-34)",9.30,≥ 9.00,9.00
"CCCC[C@@H]1NC(=O)[C@@H]2CSSC[C@H](NC(=O)[C@H](CCCNC(=N)N)NC(=O)[C@H](CCCC)NC(=O)[C@H](CC(=O)O)NC(=O)[C@H](CCCC)NC(=O)[C@@H](N)CC(N)=O)C(=O)N[C@@H](CO)C(=O)N[C@@H](C)C(=O)N[C@@H](CO)C(=O)N[C@@H](C(C)C)C(=O)N[C@@H](CCC(=O)O)C(=O)N[C@H]3CSSC[C@H](NC(=O)[C@H](CCCCN)NC(=O)[C@H](CCCCN)NC(=O)[C@H](CC(N)=O)NC1=O)C(=O)N[C@@H](CCCCN)C(=O)N[C@H](C(=O)N[C@@H](Cc1ccc(O)cc1)C(=O)N1CCC[C@H]1C(=O)N[C@@H](CCCNC(=N)N)C(N)=O)CSSC[C@H](NC(=O)[C@H](CCCCN)NC(=O)[C@H](CCC(N)=O)NC(=O)[C@H](CCC(N)=O)NC3=O)C(=O)N[C@@H](CC(C)C)C(=O)N[C@@H](CCCCN)C(=O)N[C@@H](C)C(=O)N[C@@H]([C@@H](C)CC)C(=O)NCC(=O)N[C@@H](CO)C(=O)N[C@@H]([C@@H](C)CC)C(=O)N[C@@H](Cc1ccccc1)C(=O)NCC(=O)N[C@@H](CCCCN)C(=O)N2 [Compound 44] (H-N[Nle]D[Nle]RCSASVECQQKCLKAIGSIFGKC[Nle]NKKCKCYPR-NH2; disulfide 6-27, 12-32, 16-34)",9.89,–,8.96
CCCC[C@H](NC(=O)[C@H](CC(=O)O)NC(=O)[C@H](CCCC)NC(=O)[C@@H](N)CO)C(=O)N[C@@H](CCCNC(=N)N)C(=O)N[C@H]1CSSC[C@@H]2NC(=O)[C@H](CCCCN)NC(=O)CNC(=O)[C@H](Cc3ccccc3)NC(=O)[C@H]([C@@H](C)CC)NC(=O)[C@H](CO)NC(=O)CNC(=O)[C@H]([C@@H](C)CC)NC(=O)[C@H](C)NC(=O)[C@H](CCCCN)NC(=O)[C@H](CC(C)C)NC(=O)[C@@H]3CSSC[C@@H](C(=O)N[C@@H](Cc4ccc(O)cc4)C(=O)N4CCC[C@H]4C(=O)N[C@@H](CCCNC(=N)N)C(N)=O)NC(=O)[C@H](CCCNC(=N)N)NC(=O)[C@H](CSSC[C@H](NC(=O)[C@H](CCC(=O)O)NC(=O)[C@H](C(C)C)NC(=O)[C@H](CO)NC(=O)[C@H](C)NC(=O)[C@H](CO)NC1=O)C(=O)N[C@@H](CCCCN)C(=O)N[C@@H](CCC(N)=O)C(=O)N[C@@H](CCCCN)C(=O)N3)NC(=O)[C@H](CCCCN)NC(=O)[C@H](CCCCN)NC(=O)[C@H](CC(N)=O)NC(=O)[C@H](CCSC)NC2=O [Compound 75],–,≥ 9.00,–
"CCCC[C@H](NC(=O)[C@@H]1CCCN1)C(=O)N[C@@H](CCC(=O)O)C(=O)N[C@@H](CCCC)C(=O)N[C@@H](CCCNC(=N)N)C(=O)N[C@H]1CSSC[C@@H]2NC(=O)[C@H](CCCCN)NC(=O)CNC(=O)[C@H](Cc3ccccc3)NC(=O)[C@H]([C@@H](C)CC)NC(=O)[C@H](CO)NC(=O)CNC(=O)[C@H]([C@@H](C)CC)NC(=O)[C@H](C)NC(=O)[C@H](C)NC(=O)[C@H](CC(C)C)NC(=O)[C@@H]3CSSC[C@@H](C(=O)N[C@@H](Cc4ccc(O)cc4)C(=O)N4CCC[C@H]4C(=O)N[C@@H](CCCNC(=N)N)C(=O)O)NC(=O)[C@H](CCCCN)NC(=O)[C@H](CSSC[C@H](NC(=O)[C@H](CCC(=O)O)NC(=O)[C@H](C(C)C)NC(=O)[C@H](Cc4ccccc4)NC(=O)[C@H](C)NC(=O)[C@H](CO)NC1=O)C(=O)N[C@@H](CCCCN)C(=O)N[C@@H](CCC(N)=O)C(=O)N[C@@H](CCCCN)C(=O)N3)NC(=O)[C@H](CCCCN)NC(=O)[C@H](CCCCN)NC(=O)[C@H](CC(N)=O)NC(=O)[C@H](CCCC)NC2=O [Compound 145] (H-P[Nle]E[Nle]RCSAFVECKQKCLAAIGSIFGKC[Nle]NKKCKCYPR-OH; disulfide 6-27, 12-32, 16-34)",8.08,–,–
"H-NMDMRCSASVECKQKCLKAIGSIFGKCMNKKCKCYPRHRRK-NH2 (disulfide 6-27, 12-32, 16-34) [Compound 24]",10.14,–,–
